Test system: maternal sera (antibodies)
Assay: ELISA peptide-binding of maternal sera (Example 6)
Parameters: species or system human
Conditions: for Number of Non-Transmitters which bound to peptide / Percent of Non-Transmitters which bound to peptide: N = 12; for Number of Transmitters which bound to peptide / Percent of Transmitters which bound to peptide: N = 4
Source text: A total of 86 maternal sera samples obtained from patients of the Hospital of the University of Pennsylvania during the third trimester of pregnancy were used in this study 58 (67%) were non-transmitters and 28 (33%) were transmitters. This is approximately consistent with the national average (i.e. a rate of transmission between 25-30%). Transmission status was based upon serological or molecular diagnosis of children (at an age of greater than 15 months) born to these mothers. Because of the constraints on the volume of serum available for many of these samples, not all sera were analyzed with all the peptides. However, each sera sample was run with at least 40 peptides.
These peptides are of an average length of 16 amino acids and covered the entire external as well as the transmembrane glycoprotein of HIV-1. Peptide binding was analyzed by ELISA essentially as described in Example 3.
The results of one study, using some of the peptides identified above among others, is provided in Table 12, which illustrates the number and percent of non-transmitters which bound to the tested peptide. The percentage designation refers to the percentage of sera samples which bound to a particular peptide. A value of greater than 0% means that at least one of the samples bound to the particular peptides.

## T19V: Peptide T19V, Sequence ID No. 195; described in the January 1991 Catalog (TGPCTNVSTVQCTHGIRPV)
  Number of Non-Transmitters which bound to peptide: 3
  Percent of Non-Transmitters which bound to peptide: 25%
  Number of Transmitters which bound to peptide: 0
  Percent of Transmitters which bound to peptide: 0%

## RG-2: gp41 peptide, amino acids 678-697, HIV strain IIIB, SEQ ID NO: 178 (WLWYIKLFIMIVGGLVGLRI)
  Number of Non-Transmitters which bound to peptide: 0
  Percent of Non-Transmitters which bound to peptide: 0%
  Number of Transmitters which bound to peptide: 0
  Percent of Transmitters which bound to peptide: 0%

## 41-13: gp41 peptide, amino acids 616-632, HIV strain BRU, SEQ ID NO: 153 (NASWSNKSLEQIWNNMT) [Peptide 41-13]
  Number of Non-Transmitters which bound to peptide: 0
  Percent of Non-Transmitters which bound to peptide: 0%
  Number of Transmitters which bound to peptide: 0
  Percent of Transmitters which bound to peptide: 0%

## 41-21: gp41 peptide, amino acids 661-683, HIV strain IIIB, SEQ ID NO: 152 (LELDKWASLWNWFNITNWLWYIK) [Peptide 41-21]
  Number of Non-Transmitters which bound to peptide: 0
  Percent of Non-Transmitters which bound to peptide: 0%
  Number of Transmitters which bound to peptide: 0
  Percent of Transmitters which bound to peptide: 0%

## RG-1: gp41 peptide, amino acids 510-516, HIV strain IIIB, SEQ ID NO: 177 (KRAVGIG)
  Number of Non-Transmitters which bound to peptide: 3
  Percent of Non-Transmitters which bound to peptide: 25%
  Number of Transmitters which bound to peptide: 1
  Percent of Transmitters which bound to peptide: 25%

## A524: gp41 peptide, amino acids 523-530, HIV strain MN, SEQ ID NO: 163 (FLGFLGAAGST) [Peptide A524]
  Number of Non-Transmitters which bound to peptide: 0
  Percent of Non-Transmitters which bound to peptide: 0%
  Number of Transmitters which bound to peptide: 0
  Percent of Transmitters which bound to peptide: 0%

## A620: gp41 peptide, amino acids 615-627, HIV strain IIIB, SEQ ID NO: 172 (SNKSLEQIWNNMT) [Peptide A620]
  Number of Non-Transmitters which bound to peptide: 1
  Percent of Non-Transmitters which bound to peptide: 8.3%
  Number of Transmitters which bound to peptide: 0
  Percent of Transmitters which bound to peptide: 0%

## VVQREKRAVGIG [Peptide 510]
  Number of Non-Transmitters which bound to peptide: 4
  Number of Transmitters which bound to peptide: 0
  Percent of Transmitters which bound to peptide: 0%

## BS-2: gp41 peptide, amino acids 625-634, HIV strain IIIB, SEQ ID NO: 176 (NMTWMEWDRE)
  Number of Non-Transmitters which bound to peptide: 0
  Percent of Non-Transmitters which bound to peptide: 0%
  Number of Transmitters which bound to peptide: 0
  Percent of Transmitters which bound to peptide: 0%

## YNKRKRIHIQRGPGRAFYTTKNII [AIDS-PND]
Example 6
  Correlation of peptide binding with non-transmitters (in words): selectively correlate with non-transmitters
  Fold binding, non-transmitters vs transmitters: at least two fold greater
  Number of Non-Transmitters which bound to peptide: 7
  Percent of Non-Transmitters which bound to peptide: 58.3%
  Number of Transmitters which bound to peptide: 1
  Percent of Transmitters which bound to peptide: 25%
Listed as AID-PND
  Percent of Non-Transmitters which bound to peptide: greater than 50%

## DC419 (IIIB): Peptide DC419 (IIIB), Sequence ID No. 191 (TGDIITLPCRIKQIINRWQV)
  Number of Non-Transmitters which bound to peptide: 0
  Percent of Non-Transmitters which bound to peptide: 0%
  Number of Transmitters which bound to peptide: 0
  Percent of Transmitters which bound to peptide: 0%

## A604 (IIIB): Peptide A604 (IIIB), Sequence ID No. 193 (CTTAVPWNASWSNKS)
  Number of Non-Transmitters which bound to peptide: 2
  Percent of Non-Transmitters which bound to peptide: 16.7%
  Number of Transmitters which bound to peptide: 0
  Percent of Transmitters which bound to peptide: 0%

## CNNKTFNGTGFCTNVSTVQ (CNNKTFNGTGPCTNVSTVQ) [Peptide C19Q]
  Number of Non-Transmitters which bound to peptide: 4
  Number of Transmitters which bound to peptide: 0
  Percent of Transmitters which bound to peptide: 0%
